Test results: US20070015828A1 (Wyeth, priority 2005, published 2007)

Experiments:
GABA A, Agonist site = assay: Receptor binding assay: GABA A agonist site; settings: Test Compound @ 10 1 M
[1] = tested on: spinal nerve ligation model of neuropathic pain, tactile allodynia; assay: Spinal nerve ligation model of neuropathic pain, tactile allodynia; format: in vivo; settings: rat, up to 100 mg/kg
Description: 1-[2-dimethylamino-1-(4-phenol)ethyl]-cis-1,4-cyclohexandiol was evaluated in two in-vivo animal models for pain, including a Visceral Pain model and a Neuropathic Pain model.
Surgical procedures were performed under 4% isoflurane/O2 anesthesia, delivered via nose cone and maintained at 2.5% for the duration of the surgery. After induction of anesthesia, the incision site was shaved and prepared in a sterile manner. Spinal nerve ligation (SNL) surgery was performed as previously described [Kim, S. H. and Chung, J. M., An experimental model for peripheral neuropathy produced by segmental spinal nerve ligation in the rat, Pain, 50 (1992) 355-63] with the exception that nerve injury was produced by tight ligation of the left L5 spinal nerve. Briefly, a midline incision was made and the L5 transverse process was removed and the nerve was tightly ligated with 6-0 silk suture material and the wound was closed in layers with 4-0 vicryl suture and the skin closed with wound clips.

Glutamate, Kainate Site = assay: Receptor binding assay: Glutamate Kainate site; settings: Test Compound @ 10 1 M
Opiate, Delta 2 (hr) = target: T1, Opiate, Delta 2 (hr) (Homo sapiens, UniProt P41143); assay: Receptor binding assay: Opiate Delta 2; settings: Test Compound @ 10 1 M
T1 construct: Novascreen (contract assay)

[2] = In vitro metabolism in hepatic microsomes, human; format: in vitro ADME; settings: both sexes, mixed male and female humans, read-out: t1/2 in hepatic microsomes
Description: (§1) In vitro metabolism of 1-[2-dimethylamino-1-(4-phenol)ethyl]-cis-1,4-cyclohexandiol was conducted in the hepatic microsomes of Sprague-Dawley rats, male dogs, male monkeys and mixed male and female humans to characterize metabolic stability and identification of metabolites. 1-[2-dimethylamino-1-(4-phenol)ethyl]-cis-1,4-cyclohexandiol was stable (t1/2>60 minutes) in hepatic microsomes indicating Phase I and II metabolism was minimal in all species.

Serotonin, 5HT1A (hr) = target: T2, Serotonin, 5HT1A (hr) (Homo sapiens, UniProt P08908); assay: Receptor binding assay: Serotonin 5HT1A; settings: Test Compound @ 10 1 M
T2 construct: Novascreen (contract assay)

Adenosine A2A (hr) = Adenosine A2A (hr) (Homo sapiens, UniProt P29274); assay: Receptor binding assay: Adenosine A2A; settings: Test Compound @ 10 1 M
rat hot plate assay = assay: Rat hot plate assay (acute pain); format: in vivo; settings: up to 30 mg/kg po
Adrenergic, Beta 1 (hr) = Adrenergic, Beta 1 (hr) (Homo sapiens, UniProt P08588); assay: Receptor binding assay: Adrenergic Beta 1; settings: Test Compound @ 10 1 M
Dopamine, D1 (hr) = Dopamine, D1 (hr) (Homo sapiens, UniProt P21728); assay: Receptor binding assay: Dopamine D1; settings: Test Compound @ 10 1 M
Glutamate, AMPA Site = assay: Receptor binding assay: Glutamate AMPA site; settings: Test Compound @ 10 1 M
Histamine, H3 = assay: Receptor binding assay: Histamine H3; settings: Test Compound @ 10 1 M
Serotonin Transporter = target: T3, Serotonin Transporter (Homo sapiens, UniProt P31645); assay: Serotonin transporter (human) binding assay
T3 construct: Novascreen (contract assay)

Melatonin = assay: Receptor binding assay: Melatonin; settings: Test Compound @ 10 1 M
Serotonin, 5HT2C = assay: Receptor binding assay: Serotonin 5HT2C; settings: Test Compound @ 10 1 M
Muscarinic, M2 (hr) = target: T4, Muscarinic, M2 (hr) (Homo sapiens, UniProt P08172); assay: Receptor binding assay: Muscarinic M2; settings: Test Compound @ 10 1 M
T4 construct: Novascreen (contract assay)

[3] = In vitro metabolism in hepatic microsomes, rat; format: in vitro ADME; settings: Sprague-Dawley rats, read-out: t1/2 in hepatic microsomes
Description: as §1

Serotonin, 5HT6 (hr) = Serotonin, 5HT6 (hr) (Homo sapiens, UniProt P50406); assay: Receptor binding assay: Serotonin 5HT6; settings: Test Compound @ 10 1 M
GABA A, Benzo, central = assay: Receptor binding assay: GABA A benzo central; settings: Test Compound @ 10 1 M
Histamine, H1 = target: T5, Histamine, H1 (Bos taurus, UniProt P30546); assay: Histamine H1 binding assay; settings: Test Compound @ 10 1 M, read-out: Receptor Binding % Inhibition
T5 construct: Novascreen (assay provider)

rat tail flick assay = assay: Rat tail flick assay (acute pain); format: in vivo; settings: up to 30 mg/kg po
[4] = Solution Stability in aqueous solutions; format: physicochemical; settings: room temperature, all aqueous solutions (pH 1.4-10.0)
[5] = tested on: Nicotinic (a-bungarotoxin insens); format: binding; settings: Test Compound @ 10 1 M
[6] = target: T6, Norepinephrine transporter (Homo sapiens, UniProt P23975); assay: Norepinephrine transporter (human recombinant) binding assay
T6 construct: Novascreen (contract assay)

[7] = interpretation of the binding data in words

T6 sequence (P23975 whole entry): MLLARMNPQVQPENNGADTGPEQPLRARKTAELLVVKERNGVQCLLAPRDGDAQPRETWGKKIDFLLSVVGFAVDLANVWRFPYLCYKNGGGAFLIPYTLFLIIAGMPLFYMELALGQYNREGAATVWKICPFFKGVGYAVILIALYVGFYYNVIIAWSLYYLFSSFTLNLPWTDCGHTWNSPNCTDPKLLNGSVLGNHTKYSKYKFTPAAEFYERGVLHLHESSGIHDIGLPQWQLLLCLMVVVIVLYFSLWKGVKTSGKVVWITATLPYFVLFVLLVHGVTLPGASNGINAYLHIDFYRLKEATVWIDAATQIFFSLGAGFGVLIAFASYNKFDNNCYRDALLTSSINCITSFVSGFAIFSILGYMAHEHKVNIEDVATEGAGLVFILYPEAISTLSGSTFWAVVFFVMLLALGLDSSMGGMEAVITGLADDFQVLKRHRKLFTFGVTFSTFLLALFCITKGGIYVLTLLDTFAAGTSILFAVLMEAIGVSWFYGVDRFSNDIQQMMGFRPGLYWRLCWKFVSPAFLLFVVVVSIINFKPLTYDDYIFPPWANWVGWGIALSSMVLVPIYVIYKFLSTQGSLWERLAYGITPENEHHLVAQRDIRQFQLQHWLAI
T3 sequence (P31645 whole entry): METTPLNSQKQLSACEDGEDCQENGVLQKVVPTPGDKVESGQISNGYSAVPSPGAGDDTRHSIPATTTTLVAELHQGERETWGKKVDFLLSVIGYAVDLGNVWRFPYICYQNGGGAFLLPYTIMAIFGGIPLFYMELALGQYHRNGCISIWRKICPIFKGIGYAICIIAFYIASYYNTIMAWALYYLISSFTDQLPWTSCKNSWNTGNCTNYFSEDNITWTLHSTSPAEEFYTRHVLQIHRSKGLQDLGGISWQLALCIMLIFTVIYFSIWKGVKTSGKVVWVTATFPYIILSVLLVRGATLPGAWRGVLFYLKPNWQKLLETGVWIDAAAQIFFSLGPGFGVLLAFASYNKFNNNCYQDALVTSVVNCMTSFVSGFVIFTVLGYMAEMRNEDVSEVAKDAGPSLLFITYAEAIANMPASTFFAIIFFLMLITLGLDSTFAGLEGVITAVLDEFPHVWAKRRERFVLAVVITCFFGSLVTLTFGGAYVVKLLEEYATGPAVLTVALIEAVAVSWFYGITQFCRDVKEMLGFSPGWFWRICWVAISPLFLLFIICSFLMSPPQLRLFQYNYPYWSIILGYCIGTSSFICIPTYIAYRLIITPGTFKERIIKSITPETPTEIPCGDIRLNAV
T5 sequence (P30546 whole entry): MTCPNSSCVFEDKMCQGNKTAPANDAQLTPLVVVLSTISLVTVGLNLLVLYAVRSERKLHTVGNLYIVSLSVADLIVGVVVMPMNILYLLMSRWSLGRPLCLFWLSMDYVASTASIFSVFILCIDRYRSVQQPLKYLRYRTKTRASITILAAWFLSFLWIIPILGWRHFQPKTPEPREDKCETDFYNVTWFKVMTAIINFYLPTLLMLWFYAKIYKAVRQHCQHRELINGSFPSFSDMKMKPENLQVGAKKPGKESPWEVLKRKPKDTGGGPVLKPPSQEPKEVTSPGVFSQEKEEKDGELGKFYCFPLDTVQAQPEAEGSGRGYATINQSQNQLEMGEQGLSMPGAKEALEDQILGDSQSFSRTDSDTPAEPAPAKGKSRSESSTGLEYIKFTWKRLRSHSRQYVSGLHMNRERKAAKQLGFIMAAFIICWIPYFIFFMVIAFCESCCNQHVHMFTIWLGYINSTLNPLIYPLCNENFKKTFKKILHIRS
Dopamine, D1 (hr), sequence (P21728 whole entry): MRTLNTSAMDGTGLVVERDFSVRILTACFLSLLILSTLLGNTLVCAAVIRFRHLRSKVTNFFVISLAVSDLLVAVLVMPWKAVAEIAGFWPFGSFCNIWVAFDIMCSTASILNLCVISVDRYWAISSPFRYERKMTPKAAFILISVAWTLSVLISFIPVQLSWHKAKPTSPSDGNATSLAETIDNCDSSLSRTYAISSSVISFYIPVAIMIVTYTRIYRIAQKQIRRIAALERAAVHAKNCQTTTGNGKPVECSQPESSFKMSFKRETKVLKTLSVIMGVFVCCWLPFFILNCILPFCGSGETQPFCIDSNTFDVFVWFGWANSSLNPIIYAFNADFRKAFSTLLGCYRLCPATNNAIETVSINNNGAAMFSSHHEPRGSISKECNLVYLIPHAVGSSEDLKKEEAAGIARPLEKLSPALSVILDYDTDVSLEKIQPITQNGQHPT
T2 sequence (P08908 whole entry): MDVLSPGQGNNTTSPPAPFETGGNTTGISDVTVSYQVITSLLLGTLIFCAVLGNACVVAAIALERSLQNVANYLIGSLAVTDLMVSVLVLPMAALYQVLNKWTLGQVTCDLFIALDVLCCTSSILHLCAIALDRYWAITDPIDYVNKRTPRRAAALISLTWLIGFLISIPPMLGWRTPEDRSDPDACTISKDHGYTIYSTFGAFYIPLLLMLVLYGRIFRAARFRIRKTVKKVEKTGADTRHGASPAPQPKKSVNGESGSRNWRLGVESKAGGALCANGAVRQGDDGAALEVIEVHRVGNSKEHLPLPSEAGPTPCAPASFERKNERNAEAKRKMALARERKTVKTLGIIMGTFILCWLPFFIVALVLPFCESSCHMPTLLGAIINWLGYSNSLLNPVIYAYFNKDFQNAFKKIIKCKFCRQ
Serotonin, 5HT6 (hr), sequence (P50406 whole entry): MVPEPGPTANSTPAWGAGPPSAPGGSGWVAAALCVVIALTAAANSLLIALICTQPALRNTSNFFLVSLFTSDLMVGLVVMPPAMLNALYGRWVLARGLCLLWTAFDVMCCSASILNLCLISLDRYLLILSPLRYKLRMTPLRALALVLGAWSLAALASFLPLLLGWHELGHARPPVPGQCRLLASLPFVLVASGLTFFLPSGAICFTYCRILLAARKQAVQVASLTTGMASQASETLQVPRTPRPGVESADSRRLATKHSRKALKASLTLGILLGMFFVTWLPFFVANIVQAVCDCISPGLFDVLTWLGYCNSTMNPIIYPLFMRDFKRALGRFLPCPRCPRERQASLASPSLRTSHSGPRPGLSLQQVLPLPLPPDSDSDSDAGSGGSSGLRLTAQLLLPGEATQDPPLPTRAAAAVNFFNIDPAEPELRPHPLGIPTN
Adrenergic, Beta 1 (hr), sequence (P08588 whole entry): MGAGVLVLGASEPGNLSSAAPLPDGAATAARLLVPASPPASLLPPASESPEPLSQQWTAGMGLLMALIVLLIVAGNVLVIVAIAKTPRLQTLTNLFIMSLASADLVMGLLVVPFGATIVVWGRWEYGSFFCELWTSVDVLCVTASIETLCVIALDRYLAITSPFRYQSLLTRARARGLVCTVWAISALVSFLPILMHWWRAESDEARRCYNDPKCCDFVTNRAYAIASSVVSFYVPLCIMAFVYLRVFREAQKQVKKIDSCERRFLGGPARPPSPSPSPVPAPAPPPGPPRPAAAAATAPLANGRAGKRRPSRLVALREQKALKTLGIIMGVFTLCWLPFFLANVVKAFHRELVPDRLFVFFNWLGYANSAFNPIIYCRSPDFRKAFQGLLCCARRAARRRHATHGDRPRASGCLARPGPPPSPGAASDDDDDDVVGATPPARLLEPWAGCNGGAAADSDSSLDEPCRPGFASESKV
T4 sequence (P08172 whole entry): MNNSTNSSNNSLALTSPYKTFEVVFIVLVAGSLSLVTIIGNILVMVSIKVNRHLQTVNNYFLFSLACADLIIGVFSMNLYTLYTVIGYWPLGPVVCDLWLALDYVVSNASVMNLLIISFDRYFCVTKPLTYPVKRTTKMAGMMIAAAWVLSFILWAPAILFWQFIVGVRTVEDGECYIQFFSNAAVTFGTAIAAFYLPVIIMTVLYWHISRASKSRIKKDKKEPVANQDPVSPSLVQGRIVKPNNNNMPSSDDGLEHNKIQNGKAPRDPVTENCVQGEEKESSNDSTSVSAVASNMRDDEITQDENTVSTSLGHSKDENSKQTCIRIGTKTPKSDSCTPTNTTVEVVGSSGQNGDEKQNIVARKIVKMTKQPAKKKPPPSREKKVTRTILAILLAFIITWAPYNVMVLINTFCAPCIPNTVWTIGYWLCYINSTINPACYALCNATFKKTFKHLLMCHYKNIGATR
Adenosine A2A (hr), sequence (P29274 whole entry): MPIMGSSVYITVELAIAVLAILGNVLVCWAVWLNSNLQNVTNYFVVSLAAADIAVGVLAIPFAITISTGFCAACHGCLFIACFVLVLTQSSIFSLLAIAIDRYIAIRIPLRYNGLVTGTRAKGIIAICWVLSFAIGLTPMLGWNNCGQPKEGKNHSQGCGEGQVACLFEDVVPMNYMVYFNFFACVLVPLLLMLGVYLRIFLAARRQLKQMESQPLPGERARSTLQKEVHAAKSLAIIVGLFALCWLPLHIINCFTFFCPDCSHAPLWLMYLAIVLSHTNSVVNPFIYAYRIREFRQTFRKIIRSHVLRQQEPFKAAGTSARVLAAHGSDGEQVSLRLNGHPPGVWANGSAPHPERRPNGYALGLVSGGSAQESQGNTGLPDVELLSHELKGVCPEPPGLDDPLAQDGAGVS
T1 sequence (P41143 whole entry): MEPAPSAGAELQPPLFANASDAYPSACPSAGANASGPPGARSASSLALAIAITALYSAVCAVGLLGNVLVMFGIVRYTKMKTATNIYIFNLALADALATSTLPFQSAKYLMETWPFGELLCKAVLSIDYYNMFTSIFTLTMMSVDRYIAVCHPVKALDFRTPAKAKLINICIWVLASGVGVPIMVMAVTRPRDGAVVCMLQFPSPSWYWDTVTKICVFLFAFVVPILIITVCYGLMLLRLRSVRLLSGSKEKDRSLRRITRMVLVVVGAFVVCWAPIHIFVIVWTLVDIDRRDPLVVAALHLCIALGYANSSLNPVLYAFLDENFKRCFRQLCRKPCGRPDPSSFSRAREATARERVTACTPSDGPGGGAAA

With `CN(C)CC(c1ccc(O)cc1)C1(O)CCC(O)CC1` (stereo not drawn) [1-[2-dimethylamino-1-(4-phenol)ethyl]-cis-1,4-cyclohexandiol] the “Receptor Binding % Inhibition” value (GABA A, Agonist site) was −16.06%, the “reversal of tactile allodynia” value [1] was “not found to reverse” and the “Receptor Binding % Inhibition” value (Glutamate, Kainate Site) was −0.51%. For the same compound, the inhibition at 10 µM (Opiate, Delta 2 (hr)) was 12.2%, the half-life [2] was greater than 60 min and the inhibition at 10 µM (Serotonin, 5HT1A (hr)) was 1.8%. The “Receptor Binding % Inhibition” value (Adenosine A2A (hr)) was 7.68%, the “effect on acute pain” value (rat hot plate assay) was “not found to affect acute pain” and the inhibition at 10 µM (Adrenergic, Beta 1 (hr)) was 7.65%. For the same compound, the inhibition at 10 µM (Dopamine, D1 (hr)) was -5.73%, the “Receptor Binding % Inhibition” value (Glutamate, AMPA Site) was 2.50% and the “Receptor Binding % Inhibition” value (Histamine, H3) was 14.00%. The inhibition at 10 µM (Serotonin Transporter; Serotonin Transporter, Test Compound @ 10 1 M, read-out: Receptor Binding % Inhibition) was 94.5%, the “serotonin reuptake inhibition activity” value (Serotonin Transporter; [7]) was “very good” and the “Receptor Binding % Inhibition” value (Melatonin) was 11.20%. For the same compound, the “Receptor Binding % Inhibition” value (Serotonin, 5HT2C) was 10.05%, the inhibition at 10 µM (Muscarinic, M2 (hr)) was 12% and the half-life [3] was greater than 60 min. The inhibition at 10 µM (Serotonin, 5HT6 (hr)) was 17.1%, the “Receptor Binding % Inhibition” value (GABA A, Benzo, central) was 0.20% and the inhibition at 10 µM (Histamine, H1) was -7.84%. For the same compound, the “effect on acute pain” value (rat tail flick assay) was “not found to affect acute pain”, the “Solution Stability, time stable” value [4] was “The compound was stable for at least 24 hours” and the “Receptor Binding % Inhibition” value [5] was −1.07%. For the same compound, the inhibition at 10 µM ([6]; Norepinephrine transporter, Test Compound @ 10 1 M, read-out: Receptor Binding % Inhibition) was 49.7% and the “norepinephrine reuptake inhibition activity” value [6, 7] was “acceptable”.
